Article PMC3486884 (PLoS Pathogens, 2012)
Like-named read-outs stand apart in the source and are kept apart here.

Columns and labels:
[1] = system: CVA21; assay: microbe, parasite or virus in culture; conditions: Coxsackievirus, CVA21, HeLa, read-out: IC50 (CVA21)
[2] = system: HRV14; conditions: n=2
[3] = system: HRV1A; conditions: n=2
[4] = system: HRV1A; assay: microbe, parasite or virus in culture; conditions: Human rhinovirus sp.
[5] = system: CVA21; conditions: n=2
[6] = system: CVB3; conditions: n=2
[7] = system: HRV16; assay: microbe, parasite or virus in culture; conditions: Human rhinovirus sp., HRV16, HeLa, read-out: IC50 (HRV16)
[8] = system: influenza virus (strain A/Puerto Rico/8/34/H1N1 depicted PR8); assay: microbe, parasite or virus in culture; conditions: unidentified influenza virus, A549, read-out: IC50 (PR8)
[9] = system: CVB4; conditions: n=2
[10] = system: HRV2; assay: microbe, parasite or virus in culture; conditions: Human rhinovirus sp., HRV2, HeLa, read-out: IC50 (HRV2)
[11] = system: CVB4; assay: microbe, parasite or virus in culture; conditions: Enterovirus B, CVB4, HeLa, read-out: IC50 (CVB4)
[12] = system: HRV2; conditions: n=2
[13] = system: HRV16; conditions: n=2
[14] = system: HRV14; assay: microbe, parasite or virus in culture; conditions: Human rhinovirus sp., HRV14, HeLa, read-out: IC50 (HRV14)

**Q.** With O=C(Nc1ccc([N+](=O)[O-])cc1Cl)c1cc(Cl)cc(Cl)c1O [TVB-1326] as the compound, how does the IC50 [1] read?
**A.** The IC50 was roughly 25.8 µM.

**Q.** And the relative infection ([2]; 0.1 µM)?
**A.** The relative infection was 0.87.

**Q.** And the relative infection ([2]; 0.3 µM)?
**A.** The relative infection was 0.90.

**Q.** What about the relative infection ([2]; 0.9 µM) of the same compound?
**A.** The relative infection was 0.88.

**Q.** And the relative infection ([2]; 2.8 µM)?
**A.** The relative infection was 0.81.

**Q.** What about the relative infection ([2]; 8.3 µM) of the same compound?
**A.** Its relative infection is 0.46.

**Q.** And the relative infection ([2]; 25.0 µM)?
**A.** Its relative infection is 0.07.

**Q.** And the relative infection ([3]; 0.1 µM)?
**A.** Its relative infection is 0.93.

**Q.** And the relative infection ([3]; 0.3 µM)?
**A.** Its relative infection is 0.91.

**Q.** And the relative infection ([3]; 0.9 µM)?
**A.** Its relative infection is 0.84.

**Q.** What about the relative infection ([3]; 2.8 µM) of the same compound?
**A.** Its relative infection is 0.62.

**Q.** And the relative infection ([3]; 8.3 µM)?
**A.** Its relative infection is 0.17.

**Q.** What about the relative infection ([3]; 25.0 µM) of the same compound?
**A.** Its relative infection is 0.02.

**Q.** What about the IC50 ([4]; HeLa, read-out: IC50 (HRV1A)) of the same compound?
**A.** The IC50 was 3.36 µM.

**Q.** And the activity at 0.03 µM ([4]; M-HeLa, 7 h, read-out: HRV1A infection (dsRNA), 0.03 µM)?
**A.** The activity at 0.03 µM was 93%.

**Q.** And the activity at 0.1 µM ([4]; M-HeLa, 7 h, read-out: HRV1A infection (dsRNA), 0.10 µM)?
**A.** Its activity at 0.1 µM is 85%.

**Q.** What about the activity at 0.31 µM ([4]; M-HeLa, 7 h, read-out: HRV1A infection (dsRNA), 0.31 µM) of the same compound?
**A.** Its activity at 0.31 µM is 88%.

**Q.** And the activity at 0.93 µM ([4]; M-HeLa, 7 h, read-out: HRV1A infection (dsRNA), 0.93 µM)?
**A.** The activity at 0.93 µM was 87%.

**Q.** What about the activity at 2.78 µM ([4]; M-HeLa, 7 h, read-out: HRV1A infection (dsRNA), 2.78 µM) of the same compound?
**A.** The activity at 2.78 µM was 66%.

**Q.** And the activity at 8.33 µM ([4]; M-HeLa, 7 h, read-out: HRV1A infection (dsRNA), 8.33 µM)?
**A.** Its activity at 8.33 µM is 17%.

**Q.** What about the activity at 25 µM ([4]; M-HeLa, 7 h, read-out: HRV1A infection (dsRNA), 25.00 µM) of the same compound?
**A.** Its activity at 25 µM is 4%.

**Q.** And the relative infection ([5]; 0.1 µM)?
**A.** The relative infection was 0.87.

**Q.** What about the relative infection ([5]; 0.3 µM) of the same compound?
**A.** The relative infection was 0.98.

**Q.** What about the relative infection ([5]; 0.9 µM) of the same compound?
**A.** The relative infection was 1.00.

**Q.** What about the relative infection ([5]; 2.8 µM) of the same compound?
**A.** The relative infection was 0.99.

**Q.** And the relative infection ([5]; 8.3 µM)?
**A.** Its relative infection is 1.10.

**Q.** And the relative infection ([5]; 25.0 µM)?
**A.** The relative infection was 0.59.

**Q.** What about the relative infection ([6]; 0.1 µM) of the same compound?
**A.** Its relative infection is 1.05.

**Q.** What about the relative infection ([6]; 0.3 µM) of the same compound?
**A.** The relative infection was 1.06.

**Q.** What about the relative infection ([6]; 0.9 µM) of the same compound?
**A.** Its relative infection is 1.11.

**Q.** And the relative infection ([6]; 2.8 µM)?
**A.** Its relative infection is 1.06.

**Q.** What about the relative infection ([6]; 8.3 µM) of the same compound?
**A.** Its relative infection is 1.00.

**Q.** And the relative infection ([6]; 25.0 µM)?
**A.** The relative infection was 1.27.

**Q.** What about the IC50 [7] of the same compound?
**A.** The IC50 was 11.1 µM.

**Q.** What about the IC50 [8] of the same compound?
**A.** The IC50 was 10.2 µM.

**Q.** What about the relative infection ([9]; 0.1 µM) of the same compound?
**A.** Its relative infection is 1.13.

**Q.** What about the relative infection ([9]; 0.3 µM) of the same compound?
**A.** The relative infection was 1.22.

**Q.** What about the relative infection ([9]; 0.9 µM) of the same compound?
**A.** The relative infection was 1.20.

**Q.** What about the relative infection ([9]; 2.8 µM) of the same compound?
**A.** The relative infection was 1.06.

**Q.** What about the relative infection ([9]; 8.3 µM) of the same compound?
**A.** The relative infection was 0.71.

**Q.** What about the relative infection ([9]; 25.0 µM) of the same compound?
**A.** The relative infection was 0.29.

**Q.** And the IC50 [10]?
**A.** Its IC50 is 3.98 µM.

**Q.** What about the IC50 [11] of the same compound?
**A.** The IC50 was 15 µM.

**Q.** And the relative infection ([12]; 0.1 µM)?
**A.** The relative infection was 1.05.

**Q.** And the relative infection ([12]; 0.3 µM)?
**A.** Its relative infection is 0.96.

**Q.** What about the relative infection ([12]; 0.9 µM) of the same compound?
**A.** Its relative infection is 0.86.

**Q.** What about the relative infection ([12]; 2.8 µM) of the same compound?
**A.** The relative infection was 0.72.

**Q.** And the relative infection ([12]; 8.3 µM)?
**A.** The relative infection was 0.15.

**Q.** And the relative infection ([12]; 25.0 µM)?
**A.** The relative infection was 0.01.

**Q.** What about the relative infection ([13]; 0.1 µM) of the same compound?
**A.** The relative infection was 0.99.

**Q.** What about the relative infection ([13]; 0.3 µM) of the same compound?
**A.** Its relative infection is 1.00.

**Q.** And the relative infection ([13]; 0.9 µM)?
**A.** Its relative infection is 0.96.

**Q.** What about the relative infection ([13]; 2.8 µM) of the same compound?
**A.** The relative infection was 0.96.

**Q.** What about the relative infection ([13]; 8.3 µM) of the same compound?
**A.** The relative infection was 0.68.

**Q.** What about the relative infection ([13]; 25.0 µM) of the same compound?
**A.** Its relative infection is 0.10.

**Q.** What about the IC50 [14] of the same compound?
**A.** The IC50 was 6.87 µM.
